Results: patent publication US9708368B2, “Linear peptide antibiotics” (priority 2012, dated 2017)
In brackets after ≈: the same amount, converted by molar mass. Numbered stars: 1 amine (or outer) side, 2 acyl side, 3 side chain; on linkers, the order of the positions; unused ones are H or OH. Square brackets hold non-standard residues; d marks the D form. Peptide text beside a SMILES is read from it. * marks the point of attachment. ξ: configuration not given here. boroAla((+)-pinanediol) = C[C@H](N*)B1O[C@@H]2C[C@@H]3C[C@@H](C3(C)C)[C@]2(C)O1; Biphenylcarbonyl(4'-Bu) = CCCCc1ccc(-c2ccc(C(=O)*)cc2)cc1; X1 = C[C@H](N*)B1OC2C[C@@H]3C[C@@H](C3(C)C)[C@]2(C)O1; ξ3Amino2oxobutanoyl = CC(N[*:1])C(=O)C(=O)[*:2]; X15 = CCCCCCN1CCC(c2ccc(C(=O)*)cc2)CC1; X4 = CCCCc1ccc(-c2c[nH]c(C(=O)*)c2)cc1; X13 = CCCCN1CCC(c2ccc(C(=O)*)cc2)CC1; X21 = CCCCc1ccc(-c2ncc(C(=O)*)s2)cc1; X10 = CCCCc1ccc(-c2ccc(N*)cc2)cc1; Thr(3ξ) = CC(O)[C@H](N)C(=O)O; X3 = CCCCCCCCCCCCS(=O)(=O)*; X6 = C[C@@H](N*)C(=O)C(N)=O; X8 = C[C@H](N*)C(=O)C(N)=O; 4Amb = NCc1ccc(C(=O)O)cc1; boroAla = C[C@H](N*)B(O)O; Dab = NCC[C@H](N)C(=O)O; Dap = NC[C@H](N)C(=O)O; X14 = CCCCc1ccc(*)cc1; CO = O=C([*:1])[*:2]; ξK = NCCCCC(N)C(=O)O; βAla = NCCC(=O)O

Legend:
[1] = tested on: Escherichia coli strain MC4100 IMP-4213, which harbors an LptD mutation; settings: Method B; E. coli MC4100 IMP-4213 (LptD mutation); 35° C., 22 hours
Procedure, shortened: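 Two-fold serial dilutions of compound inoculated at final OD600 0.0005, incubated static at 35 °C for 22 h, and growth read visually.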

[2] = tested on: methicillin resistant Staphylococcus aureus (MRSA) strain USA300 (NRS384); settings: Method B, 35° C., 22 hours
S. aureus SPase = S. aureus SPase (Staphylococcus aureus, UniProt P0A070); test: biochemical
E. coli SPase = E. coli SPase (Escherichia coli, UniProt P00803); test: Biochemical SPase activity assay (fluorogenic peptide substrate), E. coli enzyme
Sequence of E. coli SPase (P00803 whole entry): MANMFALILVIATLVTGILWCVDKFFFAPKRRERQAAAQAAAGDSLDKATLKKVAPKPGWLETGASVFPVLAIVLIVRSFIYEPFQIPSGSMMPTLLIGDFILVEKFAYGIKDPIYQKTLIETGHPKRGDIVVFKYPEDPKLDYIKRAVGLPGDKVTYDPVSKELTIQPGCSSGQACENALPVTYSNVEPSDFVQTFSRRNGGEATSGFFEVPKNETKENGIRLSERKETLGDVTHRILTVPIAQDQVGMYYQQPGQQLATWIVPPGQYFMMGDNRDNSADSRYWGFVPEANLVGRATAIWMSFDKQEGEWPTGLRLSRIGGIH

Sequence of S. aureus SPase (P0A070 whole entry): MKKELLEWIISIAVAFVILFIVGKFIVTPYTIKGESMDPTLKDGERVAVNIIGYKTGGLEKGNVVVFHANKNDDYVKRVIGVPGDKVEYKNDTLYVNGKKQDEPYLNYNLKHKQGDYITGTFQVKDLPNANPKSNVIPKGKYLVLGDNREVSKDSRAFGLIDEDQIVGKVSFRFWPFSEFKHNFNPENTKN

| Structure (SMILES) | MIC (μg/mL) E. coli [1] [µg/mL] | MIC (μg/mL) S. aureus [2] [µg/mL] | IC50 (S. aureus SPase) [nM] | IC50 (E. coli SPase) [nM] |
| --- | --- | --- | --- | --- |
| CCCCc1ccc(-c2ccc(CC(=O)N[C@@H](CCN)C(=O)N[C@H](C(=O)N[C@@H](C)C(=O)N[C@@H](CCCCN)C(=O)N[C@@H](C)B3OC4C[C@@H]5C[C@@H](C5(C)C)[C@]4(C)O3)[C@@H](C)O)cc2)cc1 (stereo partly drawn) [Compound 243] | 2 (≈ 2.29 µM) | 0.5 (≈ 0.572 µM) | 80 | 10 |
| CCCCN1CCC(c2ccc(C(=O)N[C@@H](CCN)C(=O)N[C@H](C(=O)N[C@@H](C)C(=O)N[C@@H](CCCCN)C(=O)N[C@@H](C)B3O[C@@H]4C[C@@H]5C[C@@H](C5(C)C)[C@]4(C)O3)[C@@H](C)O)cc2)CC1 [Compound 244] (X13-[Dab]TAK-{boroAla((+)-pinanediol)}) | 64 (≈ 73.8 µM) | 45 (≈ 51.9 µM) | 1100 | 350 |
| CCCCCCN1CCC(c2ccc(C(=O)N[C@@H](CCN)C(=O)N[C@H](C(=O)N[C@@H](C)C(=O)N[C@@H](CCCCN)C(=O)N[C@@H](C)B3O[C@@H]4C[C@@H]5C[C@@H](C5(C)C)[C@]4(C)O3)[C@@H](C)O)cc2)CC1 [Compound 246] (X15-[Dab]TAK-{boroAla((+)-pinanediol)}) | 64 (≈ 71.5 µM) | 23 (≈ 25.7 µM) | 290 | 55 |
| CCCCc1ccc(-c2c[nH]c(C(=O)N[C@@H](CCN)C(=O)N[C@H](C(=O)N[C@@H](C)C(=O)N[C@@H](CCCCN)C(=O)N[C@@H](C)B3O[C@@H]4C[C@@H]5C[C@@H](C5(C)C)[C@]4(C)O3)[C@@H](C)O)c2)cc1 [Compound 247] (X4-[Dab]TAK-{boroAla((+)-pinanediol)}) | 0.5 (≈ 0.589 µM) | 0.5 (≈ 0.589 µM) | 110 | 17 |
| CCCCc1ccc(-c2ncc(C(=O)N[C@@H](CCN)C(=O)N[C@H](C(=O)N[C@@H](C)C(=O)N[C@@H](CCCCN)C(=O)N[C@@H](C)B3OC4C[C@@H]5C[C@@H](C5(C)C)[C@]4(C)O3)[C@@H](C)O)s2)cc1 (stereo partly drawn) [Compound 248] (X21-[Dab]TAK-X1) | 0.25 (≈ 0.288 µM) | 0.25 (≈ 0.288 µM) | 170 | 11 |
| CCCCc1ccc(Nc2ccc(C(=O)N[C@@H](CCN)C(=O)N[C@H](C(=O)N[C@@H](C)C(=O)N[C@@H](CCCCN)C(=O)N[C@@H](C)B3OC4C[C@@H]5C[C@@H](C5(C)C)[C@]4(C)O3)[C@@H](C)O)cc2)cc1 (stereo partly drawn) [Compound 249] | 1 (≈ 1.14 µM) | 0.35 (≈ 0.4 µM) | 160 | 17 |
| CCCCc1ccc(NCc2ccc(C(=O)N[C@@H](CCN)C(=O)N[C@H](C(=O)N[C@@H](C)C(=O)N[C@@H](CCCCN)C(=O)N[C@@H](C)B3OC4C[C@@H]5C[C@@H](C5(C)C)[C@]4(C)O3)[C@@H](C)O)cc2)cc1 (stereo partly drawn) [Compound 250] ({X14-4Amb}-[Dab]TAK-X1) | 0.71 (≈ 0.799 µM) | 0.35 (≈ 0.394 µM) | 110 | 8.4 |
| CCCCc1ccc(-c2ccc(C(=O)NCCC(=O)N[C@@H](CCCCN)C(=O)N[C@H](C(=O)N[C@@H](C)C(=O)N[C@@H](CC(N)=O)C(=O)NC(C)C(=O)C(=O)NC)[C@@H](C)O)cc2)cc1 (stereo partly drawn) [Compound 252] ({Biphenylcarbonyl(4'-Bu)-βAla}-KTAN[ξ3Amino2oxobutanoyl]-NHMe) | >64 | 5 (≈ 5.87 µM) | 8.7 | 3000 |
| CCCCc1ccc(-c2ccc(C(=O)NC(CCCCN)C(=O)N[C@@H](CCCCN)C(=O)N[C@@H](C)C(=O)N[C@@H](CC(C)C)C(=O)N[C@@H](C)C(=O)C(N)=O)cc2)cc1 (stereo partly drawn) [Compound 253] ({Biphenylcarbonyl(4'-Bu)}-[ξK]KAL-X8) | 11 (≈ 13.9 µM) | 8 (≈ 10.1 µM) | 2100 | 4800 |
| CCCCc1ccc(-c2ccc(C(=O)N[C@@H](CCCCN)C(=O)N[C@@H](CCCCN)C(=O)N[C@@H](C)C(=O)N[C@@H](CC(C)C)C(=O)N[C@H](C)C(=O)C(N)=O)cc2)cc1 [Compound 254] ({Biphenylcarbonyl(4'-Bu)}-KKAL-X6) | 11 (≈ 13.9 µM) | 8 (≈ 10.1 µM) | 660 | 1200 |
| CCCCc1ccc(-c2ccc(C(=O)N[C@@H](CN)C(=O)N[C@@H](CCC(=O)N[C@H](CC(=O)O)C(=O)O)C(=O)N[C@@H](C)C(=O)N[C@@H](CCCCN)C(=O)N[C@@H](C)B3OC4C[C@@H]5C[C@@H](C5(C)C)[C@]4(C)O3)cc2)cc1 (stereo partly drawn) [Compound 259] ({Biphenylcarbonyl(4'-Bu)}-[Dap]E(dD)AK-X1) | 4 (≈ 4.04 µM) | 11 (≈ 11.1 µM) | 32 | 2.6 |
| CCCCc1ccc(-c2ccc(C(=O)N[C@@H](CN)C(=O)N[C@@H](CCC(=O)N[C@H](C)C(=O)O)C(=O)N[C@@H](C)C(=O)N[C@@H](CCCCN)C(=O)N[C@@H](C)B3O[C@@H]4C[C@@H]5C[C@@H](C5(C)C)[C@]4(C)O3)cc2)cc1 [Compound 260] ({Biphenylcarbonyl(4'-Bu)}-[Dap]E(dA)AK-{boroAla((+)-pinanediol)}) | 1 (≈ 1.06 µM) | 4 (≈ 4.23 µM) | 83 | 5.6 |
| CCCCc1ccc(-c2ccc(C(=O)N[C@@H](CCCCN)C(=O)N[C@@H](CCC(=O)OCC)C(=O)N[C@@H](C)C(=O)N[C@@H](CCCCN)C(=O)N[C@@H](C)B3O[C@@H]4C[C@@H]5C[C@@H](C5(C)C)[C@]4(C)O3)cc2)cc1 [Compound 261] ({Biphenylcarbonyl(4'-Bu)}-KE(OEt)AK-{boroAla((+)-pinanediol)}) | 0.79 (≈ 0.837 µM) | 0.71 (≈ 0.752 µM) | 280 | 41 |
| CCCCc1ccc(-c2ccc(OC(=O)N[C@@H](CCCCN)C(=O)N[C@H](C(=O)N[C@@H](C)C(=O)N[C@@H](CC(N)=O)C(=O)N[C@@H](C)B3OC4C[C@@H]5C[C@@H](C5(C)C)[C@]4(C)O3)[C@@H](C)O)cc2)cc1 (stereo partly drawn) [Compound 262] | 8 (≈ 8.99 µM) | 2.8 (≈ 3.15 µM) | 15 | 37 |
| CCCCc1ccc(-c2ccc(NC(=O)N[C@@H](CCCCN)C(=O)N[C@H](C(=O)N[C@@H](C)C(=O)N[C@@H](CC(N)=O)C(=O)N[C@@H](C)B3OC4C[C@@H]5C[C@@H](C5(C)C)[C@]4(C)O3)[C@@H](C)O)cc2)cc1 (stereo partly drawn) [Compound 263] ({X10-CO}-KTAN-X1) | 2 (≈ 2.25 µM) | 0.71 (≈ 0.799 µM) | 72 | 88 |
| CCCCCCCCCCCCS(=O)(=O)N[C@@H](CCCCN)C(=O)N[C@H](C(=O)N[C@@H](C)C(=O)N[C@@H](CCCCN)C(=O)N[C@@H](C)B(O)O)C(C)O (stereo partly drawn) [Compound 265] (X3-K[Thr(3ξ)]AK-boroAla) | 4 (≈ 5.33 µM) | 0.13 (≈ 0.173 µM) | 17 | 120 |
| CCCCc1ccc(-c2ccc(CN[C@@H](CCN)C(=O)N[C@H](C(=O)N[C@@H](C)C(=O)N[C@@H](CCCCN)C(=O)N[C@@H](C)B3OC4C[C@@H]5C[C@@H](C5(C)C)[C@]4(C)O3)[C@@H](C)O)cc2)cc1 (stereo partly drawn) [Compound 266] | 1 (≈ 1.18 µM) | 0.5 (≈ 0.591 µM) | 160 | 22 |
| CCCCc1ccc(-c2ccc(C(=O)N[C@@H]3CN[C@H](C(=O)N[C@H](C(=O)N[C@@H](C)C(=O)N[C@@H](CCCCN)C(=O)N[C@@H](C)B4OC5C[C@@H]6C[C@@H](C6(C)C)[C@]5(C)O4)[C@@H](C)O)C3)cc2)cc1 (stereo partly drawn) [Compound 268] | 16 (≈ 18.4 µM) | 1 (≈ 1.15 µM) | 81 | 1600 |
| CCCCc1ccc(-c2ccc(C(=O)N[C@H]3CN[C@H](C(=O)N[C@H](C(=O)N[C@@H](C)C(=O)N[C@@H](CCCCN)C(=O)N[C@@H](C)B4OC5C[C@@H]6C[C@@H](C6(C)C)[C@]5(C)O4)[C@@H](C)O)C3)cc2)cc1 (stereo partly drawn) [Compound 269] | 8 (≈ 9.18 µM) | 0.5 (≈ 0.573 µM) | 340 | 1800 |
| CCCCc1ccc(-c2ccc(CNCCC(=O)N[C@H](C(=O)N[C@@H](C)C(=O)N[C@@H](CCCCN)C(=O)N[C@@H](C)B3O[C@@H]4C[C@@H]5C[C@@H](C5(C)C)[C@]4(C)O3)[C@@H](C)O)cc2)cc1 [Compound 270] | 8 (≈ 9.79 µM) | 0.5 (≈ 0.612 µM) | 120 | 650 |
| CCCCc1ccc(-c2ccc(CNCCCC(=O)N[C@H](C(=O)N[C@@H](C)C(=O)N[C@@H](CCCCN)C(=O)N[C@@H](C)B3O[C@@H]4C[C@@H]5C[C@@H](C5(C)C)[C@]4(C)O3)[C@@H](C)O)cc2)cc1 [Compound 271] | 11 (≈ 13.2 µM) | 0.5 (≈ 0.602 µM) | 16 | 200 |
| CCCCc1ccc(-c2ccc(C(=O)N3CCC(C(=O)N[C@H](C(=O)N[C@@H](C)C(=O)N[C@@H](CCCCN)C(=O)N[C@@H](C)B4O[C@@H]5C[C@@H]6C[C@@H](C6(C)C)[C@]5(C)O4)[C@@H](C)O)CC3)cc2)cc1 [Compound 272] | 32 (≈ 36.7 µM) | 0.71 (≈ 0.815 µM) | 50 | 1300 |
| CCCCc1ccc(-c2ccc(CN3CCC(C(=O)N[C@H](C(=O)N[C@@H](C)C(=O)N[C@@H](CCCCN)C(=O)N[C@@H](C)B4OC5C[C@@H]6C[C@@H](C6(C)C)[C@]5(C)O4)[C@@H](C)O)CC3)cc2)cc1 (stereo partly drawn) [Compound 273] | 8 (≈ 9.34 µM) | 0.088 (≈ 0.103 µM) | 9.8 | 470 |
| CCCCc1ccc(-c2ccc(CNCCC[C@H](N)C(=O)N[C@H](C(=O)N[C@@H](C)C(=O)N[C@@H](CCCCN)C(=O)N[C@@H](C)B3OC4C[C@@H]5C[C@@H](C5(C)C)[C@]4(C)O3)[C@@H](C)O)cc2)cc1 (stereo partly drawn) [Compound 274] | 16 (≈ 18.6 µM) | 0.13 (≈ 0.151 µM) | 35 | 1700 |
